Experimental data from patent US20250332300A1 (priority 2024, published 2025).
Structures can show the parent of a compound that is named as a salt. Where two headings read alike, the source gives them in different places. Starred links: 1 amine or outer side, 2 acyl side, 3 side chain; linkers in the order of their positions; H or OH if unused. Positions of bridges follow the written chain, without caps; N, C: chain ends. Non-standard residues stand in square brackets, D forms with d. Residues, ends and D or L forms follow the SMILES beside them. Trp(5-OH) = N[C@@H](Cc1c[nH]c2ccc(O)cc12)C(=O)O; NMePhe(4-F) = CN[C@@H](Cc1ccc(F)cc1)C(=O)O; NMehPhe = CN[C@@H](CCc1ccccc1)C(=O)O; Glutaryl = O=C(CCCC(=O)[*:2])[*:1]; Gly(cPr) = N[C@H](C(=O)O)C1CC1; NMeK = CN[C@@H](CCCCN)C(=O)O; NMeDap = CN[C@@H](CN)C(=O)O; NMeC = CN[C@@H](CS)C(=O)O; NMeS = CN[C@@H](CO)C(=O)O; Dap = NC[C@H](N)C(=O)O; X5 = O=C(C[*:2])[*:1]

Assays:
Format in all cases: binding
human HER2 (23-652) [1] = target: T1, human HER2 (23-652) (Homo sapiens, UniProt P04626); test: Surface plasmon resonance (SPR) for assessment of peptide affinity, human HER2; design: towards human HER2 (23-652) and mouse HER2 (23-653); made in house
Outline: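 Binding kinetics fitted from sensorgrams with 280 s peptide association then 3000 s dissociation (30 uL/min), using HER2 (23-652) either directly immobilized (SA/CM5) or anti-Fc-captured; 3 M magnesium chloride used for regeneration.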

mouse HER2 (23-653) [2] = target: T2, mouse HER2 (23-653) (Mus musculus, UniProt P70424); test: Surface plasmon resonance (SPR) for assessment of peptide affinity, mouse HER2; design: mouse HER2 (23-653) using a Cy5 labeled peptide as a probe; made in house
Text: Each protein was immobilized either onto a SA sensorchip (Cytiva, BR-1005-31) or CM5 sensorchip (Cytiva, BR-1005-30) to a density of 800-2000 RU.

mouse HER2 (23-653) [3] = target: T2, mouse HER2 (23-653); test: TR-FRET competition assay for peptide potency, mouse HER2; design: mouse HER2 (23-653) using a Cy5 labeled peptide as a probe; made in house; host or cells: mammalian cells; details: 0.1 nM mouse HER2, 24 h incubation
human HER2 (23-652) [4] = target: T1, human HER2 (23-652); test: TR-FRET competition assay for peptide potency, human HER2; design: towards human HER2 (23-652) and mouse HER2 (23-653); made in house; host or cells: mammalian cells
[5] = SPR, human HER2 extracellular domain, 25° C., 1:1 binding model, read-out: huHER2-SPR-ONC KD
[6] = SPR, mouse HER2 extracellular domain, 25° C., 1:1 binding model, read-out: moHER2-SPR-ONC KD
[7] = TR-FRET competition with Cy5 labeled peptide probe, read-out: moHER2 TR-FRET IC50
[8] = moHER2 TR-FRET IC50, TR-FRET competition with Cy5 labeled peptide probe
[9] = huHER2 TR-FRET IC50, TR-FRET competition with Cy5 labeled peptide probe, 0.1 nM human HER2, 24 h incubation

Kd (human HER2 (23-652) [1]; [5]) [nM]	Kd (mouse HER2 (23-653) [2]; [6]) [nM]	IC50 (mouse HER2 (23-653) [3]; [7]) [nM]	IC50 (human HER2 (23-652) [4]; read-out: huHER2 TR-FRET IC50) [nM]	IC50 (human HER2 (23-652) [4]; TR-FRET competition with Cy5 labeled peptide probe, 0.1 nM human HER2, 24 h incubation, read-out: huHER2 TR-FRET IC50) [nM]	SMILES	Kd (human HER2 (23-652) [1]) [nM]	Kd (mouse HER2 (23-653) [2]) [nM]	IC50 (mouse HER2 (23-653) [3]; [8]) [nM]	IC50 (human HER2 (23-652) [4]; [9]) [nM]
> 6000	> 6000	> 1000	> 1000		CC(=O)N[C@H]1CCC(=O)NC[C@@H](C(=O)N(C)[C@@H](Cc2ccc(F)cc2)C(N)=O)N(C)C(=O)[C@H](C2CC2)NC(=O)[C@H](Cc2c[nH]c3ccccc23)NC(=O)[C@H](Cc2cnn3ccccc23)NC(=O)[C@H](CO)N(C)C(=O)[C@H](CCc2ccccc2)N(C)C(=O)[C@H](CO)NC(=O)[C@H](Cc2ccc(O)cc2)NC1=O [Example A16, (3S,6S,9S,12S,15S,18S,21S,24S,27S)-9-((1H-indol-3-yl)methyl)-27-acetamido-N-((S)-1-amino-3-(4-fluorophenyl)-1-oxopropan-2-yl)-6-cyclopropyl-24-(4-hydroxybenzyl)-15,21-bis(hydroxymethyl)-N,4,16,19-tetramethyl-5,8,11,14,17,20,23,26,30-nonaoxo-18-phenethyl-12-(pyrazolo[1,5-a]pyridin-3-ylmethyl)-1,4,7,10,13,16,19,22,25-nonaazacyclotriacontane-3-carboxamide]				
485	755	> 1000	844		CN1C(=O)[C@H](CO)NC(=O)[C@H](Cc2ccc(O)cc2)NC(=O)[C@@H](N)Cc2cccc(c2)CC(=O)NC[C@@H](C(=O)N(C)[C@@H](Cc2ccc(F)cc2)C(N)=O)N(C)C(=O)[C@H](C2CC2)NC(=O)[C@H](Cc2c[nH]c3ccccc23)NC(=O)[C@H](Cc2c[nH]c3ccc(O)cc23)NC(=O)[C@H](CO)N(C)C(=O)[C@@H]1CCc1ccccc1 [Example A31, (6S,9S,12S,15S,18S,21S,24S,27S,30S)-12-((1H-indol-3-yl)methyl)-30-amino-N—((S)-1-amino-3-(4-fluorophenyl)-1-oxopropan-2-yl)-9-cyclopropyl-15-((5-hydroxy-1H-indol-3-yl)methyl)-27-(4-hydroxybenzyl)-18,24-bis(hydroxymethyl)-N,7,19,22-tetramethyl-3,8,11,14,17,20,23,26,29-nonaoxo-21-phenethyl-4,7,10,13,16,19,22,25,28-nonaaza-1 (1,3)-benzenacyclohentriacontaphane-6-carboxamide TFA salt]				
< 0.1	< 0.1	0.1		< 0.1	CC(=O)NCCCC[C@H]1C(=O)N[C@@H](Cc2c[nH]c3ccc(O)cc23)C(=O)N[C@@H](Cc2c[nH]c3ccccc23)C(=O)N[C@@H](C2CC2)C(=O)N(C)[C@H](C(=O)N(C)[C@@H](Cc2ccc(F)cc2)C(=O)N[C@@H](CCCCNC(=O)CN2CCN(CC(=O)O)CCN(CC(=O)O)CCN(CC(=O)O)CC2)C(N)=O)CNC(=O)CCC[C@H](NC(=O)CCC(=O)O)C(=O)N[C@@H](Cc2ccc(O)cc2)C(=O)N[C@@H](CO)C(=O)N(C)[C@@H](CCc2ccccc2)C(=O)N1C [Example C11]				
					CN1C(=O)[C@H](CO)NC(=O)[C@H](Cc2ccc(O)cc2)NC(=O)[C@@H](N)CC(=O)NC[C@@H](C(=O)N(C)[C@@H](Cc2ccc(F)cc2)C(N)=O)N(C)C(=O)[C@H](C2CC2)NC(=O)[C@H](Cc2c[nH]c3ccccc23)NC(=O)[C@H](Cc2c[nH]c3ccc(O)cc23)NC(=O)[C@H](CO)N(C)C(=O)[C@@H]1CCc1ccccc1 [Example A37, (3S,6S,9S,12S,15S,18S,21S,24S,27S)-9-((1H-indol-3-yl)methyl)-27-amino-N-((S)-1-amino-3-(4-fluorophenyl)-1-oxopropan-2-yl)-6-cyclopropyl-12-((5-hydroxy-1H-indol-3-yl)methyl)-24-(4-hydroxybenzyl)-15,21-bis(hydroxymethyl)-N,4,16,19-tetramethyl-5,8,11,14,17,20,23,26,29-nonaoxo-18-phenethyl-1,4,7,10,13,16,19,22,25-nonaazacyclononacosane-3-carboxamide TFA salt] (H-DYS[NMehPhe][NMeS][Trp(5-OH)]W[Gly(cPr)][NMeDap][NMePhe(4-F)]-NH2; lactam 1-9)	452	213	> 1000	810
482	520	684	536		CC(=O)N[C@H]1CCC(=O)NCC[C@@H](C(=O)N(C)[C@@H](Cc2ccc(F)cc2)C(N)=O)N(C)C(=O)[C@H](C2CC2)NC(=O)[C@H](Cc2c[nH]c3ccccc23)NC(=O)[C@H](Cc2c[nH]c3ccc(O)cc23)NC(=O)[C@H](CO)N(C)C(=O)[C@H](CCc2ccccc2)N(C)C(=O)[C@H](CO)NC(=O)[C@H](Cc2ccc(O)cc2)NC1=O [Example A10, (2S,5S,8S,11S,14S,17S,20S,23S,30S)-17-((1H-indol-3-yl)methyl)-30-acetamido-N-((S)-1-amino-3-(4-fluorophenyl)-1-oxopropan-2-yl)-20-cyclopropyl-14-((5-hydroxy-1H-indol-3-yl)methyl)-2-(4-hydroxybenzyl)-5,11-bis(hydroxymethyl)-N,7,10,22-tetramethyl-3,6,9,12,15,18,21,27,31-nonaoxo-8-phenethyl-1,4,7,10,13,16,19,22,26-nonaazacyclohentriacontane-23-carboxamide]				
18	23	40	18		CC(=O)NCCCC[C@H]1C(=O)N[C@@H](Cc2c[nH]c3ccc(O)cc23)C(=O)N[C@@H](Cc2c[nH]c3ccccc23)C(=O)N[C@@H](C2CC2)C(=O)N(C)[C@H](C(=O)N(C)[C@@H](Cc2ccc(F)cc2)C(N)=O)CNC(=O)CCCC(=O)N[C@@H](Cc2ccc(O)cc2)C(=O)N[C@@H](CO)C(=O)N(C)[C@@H](CCc2ccccc2)C(=O)N1C [Example A7, (3S,6S,9S,12S,15S,18S,21S,24S)-9-((1H-indol-3-yl)methyl)-15-(4-acetamidobutyl)-N-((S)-1-amino-3-(4-fluorophenyl)-1-oxopropan-2-yl)-6-cyclopropyl-12-((5-hydroxy-1H-indol-3-yl)methyl)-24-(4-hydroxybenzyl)-21-(hydroxymethyl)-N,4,16,19-tetramethyl-5,8,11,14,17,20,23,26,30-nonaoxo-18-phenethyl-1,4,7,10,13,16,19,22,25-nonaazacyclotriacontane-3-carboxamide] (YS[NMehPhe][NMeK](Ac)[Trp(5-OH)]W[Gly(cPr)][NMeDap][NMePhe(4-F)]-NH2; linker N-8 via Glutaryl)				
					CN1C(=O)[C@H](Cc2ccc(O)cc2)NC(=O)[C@@H](N)CCC(=O)NC[C@@H](C(=O)N(C)[C@@H](Cc2ccc(F)cc2)C(N)=O)N(C)C(=O)[C@H](C2CC2)NC(=O)[C@H](Cc2c[nH]c3ccccc23)NC(=O)[C@H](Cc2c[nH]c3ccc(O)cc23)NC(=O)[C@H](CO)N(C)C(=O)[C@H](CCc2ccccc2)N(C)C(=O)[C@@H]1CO [Example A38, (3S,6S,9S,12S,15S,18S,21S,24S,27S)-9-((1H-indol-3-yl)methyl)-27-amino-N-((S)-1-amino-3-(4-fluorophenyl)-1-oxopropan-2-yl)-6-cyclopropyl-12-((5-hydroxy-1H-indol-3-yl)methyl)-24-(4-hydroxybenzyl)-15,21-bis(hydroxymethyl)-N,4,16,19,22-pentamethyl-5,8,11,14,17,20,23,26,30-nonaoxo-18-phenethyl-1,4,7,10,13,16,19,22,25-nonaazacyclotriacontane-3-carboxamide TFA salt] (H-EY[NMeS][NMehPhe][NMeS][Trp(5-OH)]W[Gly(cPr)][NMeDap][NMePhe(4-F)]-NH2; lactam 1-9)	46	67	206	93

SMILES	Kd (human HER2 (23-652) [1]; [5]) [nM]	Kd (mouse HER2 (23-653) [2]; [6]) [nM]	IC50 (mouse HER2 (23-653) [3]; [7]) [nM]	IC50 (human HER2 (23-652) [4]; read-out: huHER2 TR-FRET IC50) [nM]	IC50 (human HER2 (23-652) [4]; TR-FRET competition with Cy5 labeled peptide probe, 0.1 nM human HER2, 24 h incubation, read-out: huHER2 TR-FRET IC50) [nM]	Kd (human HER2 (23-652) [1]) [nM]	Kd (mouse HER2 (23-653) [2]) [nM]	IC50 (mouse HER2 (23-653) [3]; [8]) [nM]	IC50 (human HER2 (23-652) [4]; [9]) [nM]
CN1C(=O)[C@H](CO)NC(=O)[C@H](Cc2ccc(O)cc2)NC(=O)[C@@H](N)CNC(=O)CSC[C@@H](C(=O)N(C)[C@@H](Cc2ccc(F)cc2)C(N)=O)N(C)C(=O)[C@H](C2CC2)NC(=O)[C@H](Cc2c[nH]c3ccccc23)NC(=O)[C@H](Cc2c[nH]c3ccc(O)cc23)NC(=O)[C@H](CO)N(C)C(=O)[C@@H]1CCc1ccccc1 [Example A53, (3R,6S,9S,12S,15S,18S,21S,24S,27S)-9-((1H-indol-3-yl)methyl)-27-amino-N—((S)-1-amino-3-(4-fluorophenyl)-1-oxopropan-2-yl)-6-cyclopropyl-12-((5-hydroxy-1H-indol-3-yl)methyl)-24-(4-hydroxybenzyl)-15,21-bis(hydroxymethyl)-N,4,16,19-tetramethyl-5,8,11,14,17,20,23,26,30-nonaoxo-18-phenethyl-1-thia-4,7,10,13,16,19,22,25,29-nonaazacyclohentriacontane-3-carboxamide TFA salt] (H-[Dap]YS[NMehPhe][NMeS][Trp(5-OH)]W[Gly(cPr)][NMeC][NMePhe(4-F)]-NH2; linker 1-9 via X5)		154	466			132			163
